Source: patent publication US10065957B2, “Beta-lactamase inhibitors” (Novartis AG, priority 2016, dated 2018)

Tests used:
Type in all cases: cell-based
[1] = test system: Enterobacter cloacae NB25044 (CTX-M-12, ACT, KPC-2); conditions: AZ + BLI at 2 μg/mL
Experimental: (§1) MICs were determined by the broth microdilution method in accordance with Clinical and Laboratories Institute (CLSI) guidelines. In brief, fresh overnight bacterial cultures were suspended in sterile saline, and adjusted to a 0.5 McFarland turbidity standard. Bacterial suspensions were then diluted in cation adjusted Mueller-Hinton Broth (MHB II; BBL) to yield a final inoculum of approximately 5×10^5 colony-forming units (CFU)/mL. A master plate of antibiotics was prepared at a concentration equivalent to hundred-fold the highest desired final concentration in 100% dimethyl sulfoxide (DMSO). The master antibiotic plate was then diluted by serial twofold dilution with a multichannel pipette. The resulting dilution series of compounds were diluted 1:10 with sterile water or a solution of beta-lactamase inhibitor prepared at a concentration equivalent to eleven-fold the desired final concentration in deionized water leading to a 10% DMSO final concentration. A volume of 10 μL of the drug dilution series was transferred to 96-well assay plates. Assay plates were inoculated with 90 μL of bacterial suspensions and incubated at 35° C. for 20 hrs. The assay plates were read using a microtiter plate reader (Molecular Devices) at 600 nm as well as by visual observation with a reading mirror. The lowest concentration of the compound that prevented visible growth was recorded as the MIC.
(§2) Synergy or potentiation of beta-lactam antibiotics through inhibition of Q-lactamases was assessed against an isogenic panel of E. coli strains, each expressing a unique beta-lactamase, and against clinical strains.

[2] = test system: K. pneumoniae NB29323 (CTX-M-15, OXA-48, VEB-1); conditions: AZ + BLI at 2 μg/mL
Experimental: as §1, with “MIC. Performance of the assay was monitored by testing aztreonam against laboratory quality control strains in accordance with guidelines of the CLSI.” for “MIC.”
as §2

E. coli (OXA-18) = assay: microbe, parasite or virus in culture; conditions: for MIC of aztreonam with beta-lactamase inhibitor: AZ + BLI at 2 μg/mL; for Activity of Beta-Lactam 5 with beta-lactamase inhibitor: Beta-Lactam 5 + BLI at 2 μg/mL; for MIC of ceftazidime with beta-lactamase inhibitor: Ceft + BLI at 2 μg/mL; for MIC of meropenem with beta-lactamase inhibitor: Mero + BLI at 2 μg/mL; for MIC of piperacillin with beta-lactamase inhibitor: Pip + BLI at 2 μg/mL
Experimental: as §1, §2
(§3) Construction of E. coli isogenic strains, NB27273-CDY0105 (OXA-18) and NB27273-CDY0048 (TEM-10). […] The gene encoding OXA-18 was then digested with XhoI and EcoRI and inserted into this vector, from which the gene for GIM-1 had been removed with XhoI and EcoRI.
(§4) These final vectors for expression of OXA-18 and TEM-10 were transformed into BW25113 pspB to generate strains NB27273-CDY0105 (expressing OXA-18) and NB27273-CDY0048 (expressing TEM-10).

[3] = test system: E. coli ATCC 25922, K. pneumoniae ATCC 43816, P. aeruginosa ATCC 27853; assay: Direct antibacterial activity of BLIs alone, summary of Table A; conditions: BLI alone, in words
Experimental: as §1, with “A volume of 10 μL of the drug dilution series was transferred to 96-well assay plates. Assay plates were inoculated with 90 μL of bacterial suspensions and incubated at 35° C. for 20 hrs.” left out, “MIC. Performance of the assay was monitored by testing aztreonam against laboratory quality control strains in accordance with guidelines of the CLSI.” for “MIC.”

E. coli (TEM-10) = assay: microbe, parasite or virus in culture; conditions: for MIC of aztreonam with beta-lactamase inhibitor: AZ + BLI at 2 μg/mL; for Activity of Beta-Lactam 5 with beta-lactamase inhibitor: Beta-Lactam 5 + BLI at 2 μg/mL; for MIC of ceftazidime with beta-lactamase inhibitor: Ceft + BLI at 2 μg/mL; for MIC of meropenem with beta-lactamase inhibitor: Mero + BLI at 2 μg/mL
Experimental: as §1, §2, §3
From this template DNA, three fragments were generated by PCR using the following primer pairs;
This fragment was then digested with XbaI and EcoRI and inserted into pBAD-kan which was also cut with the same enzymes.
as §4

E. coli (KPC-2) = assay: microbe, parasite or virus in culture; conditions: E. coli (KPC-2); for MIC of aztreonam with beta-lactamase inhibitor: AZ + BLI at 2 μg/mL; for Activity of Beta-Lactam 5 with beta-lactamase inhibitor: Beta-Lactam 5 + BLI at 2 μg/mL; for MIC of ceftazidime with beta-lactamase inhibitor: Ceft + BLI at 2 μg/mL; for MIC of meropenem with beta-lactamase inhibitor: Mero + BLI at 2 μg/mL
Experimental: as §1, §2
(§5) Strain NB27273 (BW25113 pspB::Km^r) was obtained from the Keio transposon insertion collection. The strain has the pspB gene replaced by a kanamycin resistance marker (BW25113 pspB::Km^r). This strain was cured of the transposon in pspB via FLP recombinase using published methodology. The resulting strain, BW25113 pspB, was used as a host for multicopy vectors expressing key beta-lactamases. Multicopy plasmids directing constitutive expression of beta-lactamases were established as follows: Synthetic, codon optimized genes encoding E. coli KPC-2, SHV-12 and CTX-M-15 beta-lactamases were made by DNA2.0 (Palo Alto, Calif.). Each of the synthetic fragments were designed to contain NotI and NcoI restriction sites at their termini, allowing ligation into a NotI/NcoI digested pET28a(+) derivative for protein expression. […] The codon optimized nucleotide sequences and relevant primer recognition information is shown below:
(§6) The PCR products were then digested with XhoI and EcoRI and ligated into similarly digested plasmid pAH63-pstS(BlaP). […] Therefore, expression of beta-lactamases from pAH63-pstS(BlaP) based constructs is constitutive and the signal sequence is provided to direct these proteins to the periplasm. […] These fragments were then digested with XbaI and EcoRI, and each was inserted into pBAD18-kan that had been digested with the same enzymes to generate multicopy vectors expressing KPC-2, SHV-12 and CTX-M-15, respectively. These vectors were transformed into BW25113 pspB to generate strains NB27273-CDY0033 (expressing KPC-2), NB27273-CDY0030 (expressing SHV-12), NB27273-CDY0034 (expressing CTX-M-15) and NB27273-CDY0036 (expressing AmpC). The pBAD18-kan vector also contains the TEM promoter region and signal sequence, (but lacks any intact beta-lactamase genes) and was transformed into BW25113 pspB using standard protocols to generate the control strain NB27273-CDY0026.

E. coli (SHV-12) = assay: microbe, parasite or virus in culture; conditions: for MIC of aztreonam with beta-lactamase inhibitor: AZ + BLI at 2 μg/mL; for Activity of Beta-Lactam 5 with beta-lactamase inhibitor: Beta-Lactam 5 + BLI at 2 μg/mL; for MIC of ceftazidime with beta-lactamase inhibitor: Ceft + BLI at 2 μg/mL; for MIC of meropenem with beta-lactamase inhibitor: Mero + BLI at 2 μg/mL
Experimental: as §1, §2, §5, §6

E. coli (CTX-M-15) = assay: microbe, parasite or virus in culture; conditions: for MIC of aztreonam with beta-lactamase inhibitor: AZ + BLI at 2 μg/mL; for Activity of Beta-Lactam 5 with beta-lactamase inhibitor: Beta-Lactam 5 + BLI at 2 μg/mL; for MIC of ceftazidime with beta-lactamase inhibitor: Ceft + BLI at 2 μg/mL; for MIC of meropenem with beta-lactamase inhibitor: Mero + BLI at 2 μg/mL
Experimental: as §1, §2, §5, §6

| Structure (SMILES) | Activity of aztreonam with beta-lactamase inhibitor [1] | Activity of aztreonam with beta-lactamase inhibitor [2] | MIC of aztreonam with beta-lactamase inhibitor (E. coli (OXA-18)) | Activity of Beta-Lactam 5 with beta-lactamase inhibitor (E. coli (OXA-18)) | MIC of ceftazidime with beta-lactamase inhibitor (E. coli (OXA-18)) | MIC of meropenem with beta-lactamase inhibitor (E. coli (OXA-18)) | MIC of piperacillin with beta-lactamase inhibitor (E. coli (OXA-18)) | MIC of aztreonam with beta-lactamase inhibitor (E. coli (TEM-10)) | Activity of Beta-Lactam 5 with beta-lactamase inhibitor (E. coli (TEM-10)) | MIC of ceftazidime with beta-lactamase inhibitor (E. coli (TEM-10)) | MIC of meropenem with beta-lactamase inhibitor (E. coli (TEM-10)) | MIC of aztreonam with beta-lactamase inhibitor (E. coli (KPC-2)) | Activity of Beta-Lactam 5 with beta-lactamase inhibitor (E. coli (KPC-2)) | MIC of ceftazidime with beta-lactamase inhibitor (E. coli (KPC-2)) | MIC of meropenem with beta-lactamase inhibitor (E. coli (KPC-2)) | MIC of aztreonam with beta-lactamase inhibitor (E. coli (SHV-12)) | Activity of Beta-Lactam 5 with beta-lactamase inhibitor (E. coli (SHV-12)) | MIC of ceftazidime with beta-lactamase inhibitor (E. coli (SHV-12)) | MIC of meropenem with beta-lactamase inhibitor (E. coli (SHV-12)) | MIC of aztreonam with beta-lactamase inhibitor (E. coli (CTX-M-15)) | other results |
| --- | --- | --- | --- | --- | --- | --- | --- | --- | --- | --- | --- | --- | --- | --- | --- | --- | --- | --- | --- | --- | --- |
| NC(=O)[C@@H]1CC[C@@H]2CN1C(=O)N2OS(=O)(=O)O [Avibactam] | 8 µg/mL | 2 µg/mL | 1 µg/mL | 0.125 µg/mL | 0.5 µg/mL | ≤0.06 µg/mL | 2 µg/mL | 0.25 µg/mL | 0.125 µg/mL | 1 µg/mL | ≤0.06 µg/mL | 0.125 µg/mL | 0.125 µg/mL | 0.25 µg/mL | ≤0.06 µg/mL | 1 µg/mL | 0.125 µg/mL | 0.5 µg/mL | ≤0.06 µg/mL | 0.125 µg/mL | direct antibacterial activity [3]: exhibit direct antibacterial activity; Activity of Beta-Lactam 5 with beta-lactamase inhibitor (E. coli (CTX-M-15)): 0.25 µg/mL; MIC of ceftazidime with beta-lactamase inhibitor (E. coli (CTX-M-15)): 0.25 µg/mL; MIC of meropenem with beta-lactamase inhibitor (E. coli (CTX-M-15)): ≤0.06 µg/mL |
| O=C1NC[C@@H]2C[C@@H]3CN(C(=O)N3OS(=O)(=O)[O-])[C@H]12.[Na+] [Example 1, Sodium (4R,5aS,8aS)-2,8-dioxohexahydro-2H-1,4-methanopyrrolo[3,4-d][1,3]diazepin-3(4H)-yl sulfate] | 4 µg/mL | 0.25 µg/mL | 1 µg/mL | 0.25 µg/mL | 0.5 µg/mL | ≤0.06 µg/mL | 2 µg/mL | 0.125 µg/mL | 0.125 µg/mL | 0.25 µg/mL | ≤0.06 µg/mL | 0.125 µg/mL | 0.25 µg/mL | 0.125 µg/mL | ≤0.06 µg/mL | 0.25 µg/mL | 0.25 µg/mL | 0.25 µg/mL | ≤0.06 µg/mL | ≤0.06 µg/mL | direct antibacterial activity [3]: does not exhibit much direct antibiotic activity; Activity of Beta-Lactam 5 with beta-lactamase inhibitor (E. coli (CTX-M-15)): 0.25 µg/mL; MIC of ceftazidime with beta-lactamase inhibitor (E. coli (CTX-M-15)): 0.25 µg/mL; MIC of meropenem with beta-lactamase inhibitor (E. coli (CTX-M-15)): ≤0.06 µg/mL |
| O=C(NC1CCNCC1)[C@@H]1CC[C@@H]2CN1C(=O)N2OS(=O)(=O)O [Relebactam] | >64 µg/mL | 8 µg/mL | >64 µg/mL | 0.25 µg/mL | >64 µg/mL | ≤0.06 µg/mL | >32 µg/mL | 2 µg/mL | 0.25 µg/mL | 8 µg/mL | ≤0.06 µg/mL | 1 µg/mL | 0.125 µg/mL | 0.25 µg/mL | ≤0.06 µg/mL | 32 µg/mL | 0.125 µg/mL | 8 µg/mL | ≤0.06 µg/mL | 0.5 µg/mL | Activity of Beta-Lactam 5 with beta-lactamase inhibitor (E. coli (CTX-M-15)): 0.25 µg/mL; MIC of ceftazidime with beta-lactamase inhibitor (E. coli (CTX-M-15)): 0.5 µg/mL; MIC of meropenem with beta-lactamase inhibitor (E. coli (CTX-M-15)): ≤0.06 µg/mL |
